The record followed here is ChEMBL document CHEMBL1128962, “Serotoninergic 5-HT3 and 5-HT4 receptor activities of dihydrobenzofuran carboxylic acid derivatives” (Bioorg Med Chem Lett, 1996).

Test [1] deals with T1, Serotonin 3 (5-HT3) receptor (Rattus norvegicus, UniProt P35563+Q9JJ16).
T1 sequence (P35563 whole entry): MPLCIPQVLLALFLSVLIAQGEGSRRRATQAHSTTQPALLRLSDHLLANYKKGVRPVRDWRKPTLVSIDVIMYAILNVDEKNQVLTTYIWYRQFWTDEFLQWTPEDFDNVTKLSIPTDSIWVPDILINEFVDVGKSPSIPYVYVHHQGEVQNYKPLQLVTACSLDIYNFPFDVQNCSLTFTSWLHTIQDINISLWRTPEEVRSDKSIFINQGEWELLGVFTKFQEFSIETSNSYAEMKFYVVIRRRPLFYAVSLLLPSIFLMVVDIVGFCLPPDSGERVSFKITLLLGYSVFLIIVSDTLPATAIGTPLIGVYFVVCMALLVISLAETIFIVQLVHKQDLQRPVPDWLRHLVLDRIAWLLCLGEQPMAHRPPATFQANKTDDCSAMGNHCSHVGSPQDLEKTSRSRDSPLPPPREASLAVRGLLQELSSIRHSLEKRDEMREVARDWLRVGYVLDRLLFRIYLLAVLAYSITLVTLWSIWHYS
T1 sequence (Q9JJ16 whole entry): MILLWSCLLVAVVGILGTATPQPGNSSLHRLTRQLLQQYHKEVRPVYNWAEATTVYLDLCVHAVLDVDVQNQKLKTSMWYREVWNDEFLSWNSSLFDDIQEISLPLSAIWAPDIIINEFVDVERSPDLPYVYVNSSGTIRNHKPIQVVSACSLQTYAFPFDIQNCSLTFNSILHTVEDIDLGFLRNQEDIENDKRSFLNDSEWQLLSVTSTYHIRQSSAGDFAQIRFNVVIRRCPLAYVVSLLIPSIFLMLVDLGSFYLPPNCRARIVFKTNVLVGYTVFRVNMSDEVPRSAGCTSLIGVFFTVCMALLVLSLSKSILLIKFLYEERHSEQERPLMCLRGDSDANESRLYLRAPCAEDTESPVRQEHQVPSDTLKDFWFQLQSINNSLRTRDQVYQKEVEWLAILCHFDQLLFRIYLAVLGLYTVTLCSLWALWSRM
In words: Binding affinity at 5-hydroxytryptamine 3 receptor in rat entorhinal cortex by [3H]BRL-43694 displacement. The test is classed as tissue-based.

Test [2] concerns the target T2, 5-hydroxytryptamine receptor 4 (Rattus norvegicus, UniProt Q62758). The experiment in a line: In vitro relaxation of carbachol pre-contracted rat oesophageal TMM. The format is functional.
The target in test [3] is T2, 5-hydroxytryptamine receptor 4. The experiment in a line: Binding affinity at 5-hydroxytryptamine 4 receptor in rat striatum by [3H]GR-113808 displacement. The test is classed as tissue-based.
For test [4], the target named is 5-hydroxytryptamine receptor 4 (Rattus norvegicus) (UniProt Q62758). In words: In vitro 5-hydroxytryptamine 4 receptor activity by using carbachol-precontracted esophageal tunica muscularis mucosae.
Sequence of 5-hydroxytryptamine receptor 4 (Rattus norvegicus) (Q62758 whole entry): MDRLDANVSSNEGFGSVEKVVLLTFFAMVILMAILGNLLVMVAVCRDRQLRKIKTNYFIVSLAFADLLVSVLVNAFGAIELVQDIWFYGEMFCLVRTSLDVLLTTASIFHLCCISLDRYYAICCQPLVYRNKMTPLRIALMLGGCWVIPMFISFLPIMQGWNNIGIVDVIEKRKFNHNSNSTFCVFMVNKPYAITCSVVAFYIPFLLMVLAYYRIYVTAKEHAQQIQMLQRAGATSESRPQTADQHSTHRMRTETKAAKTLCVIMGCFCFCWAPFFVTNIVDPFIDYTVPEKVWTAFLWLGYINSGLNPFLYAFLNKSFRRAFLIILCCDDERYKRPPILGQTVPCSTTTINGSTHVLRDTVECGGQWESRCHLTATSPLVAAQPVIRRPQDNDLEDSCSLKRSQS
Test [5] addresses Serotonin 3 (5-HT3) receptor (Homo sapiens) (UniProt P46098+A5X5Y0+O95264+Q70Z44+Q8WXA8). The experiment in a line: In vitro 5-hydroxytryptamine 3 receptor activity in guinea pig ileum. As to conditions: Cavia porcellus, target entry is the homologue from another species. The format is tissue-based.
Test [6] concerns the target 5-hydroxytryptamine receptor 4 (Rattus norvegicus) (UniProt Q62758). The experiment in a line: In vitro 5-hydroxytryptamine 4 receptor activity by using carbachol-precontracted esophageal tunica muscularis mucosae; No activity up to 104M concentration.

T2 sequence (Q62758 whole entry): as above

The Ki is a dissociation constant, usually derived from enzyme kinetics or from competition with a known ligand. The EC50 is the concentration that produces a half-maximal response. A high value points to a need for much substance. For the molecule `Nc1ccc(C(=O)N[C@@H]2CN3CCC2CC3)c2c1CCO2`, the Ki in test [1] is 1 nM; in test [3], > 1000 nM. Moreover, in test [2], the half-maximal effective concentration (EC50) is > 10000 nM. Also, the Kb was > 100 nM in test [4] and 44.6 nM in test [5].

With `O=C(N[C@@H]1CN2CCC1CC2)c1cccc2c1OCC2`, the Ki in test [1] is 1.4 nM; in test [3] it was > 1000 nM. In addition, in test [2], the EC50 was > 10000 nM. The figures for the Kb in test [4] and in test [5] were > 1000 nM and 40.7 nM, respectively.

Consider `O=C(N[C@H]1CN2CCC1CC2)c1cc(Cl)cc2c1OCC2`, for which the Ki in test [1] was 1 nM; in test [3] it was 280 nM. In addition, in test [2], the EC50 was > 1000 nM. For the same molecule, the Kb in test [4] is > 1000 nM; in test [5], 38 nM.

For `Nc1c(Cl)cc(C(=O)NCCCN2CCCCC2)c2c1CCO2`, the Ki is > 10000 nM in test [1] and 9.6 nM in test [3]. The molecule also displayed a concentration for a half-maximal effect (EC50) in test [2] of 19.3 nM.

Consider `CCCCN1CCC(COC(=O)c2cc(Cl)c(N)c3c2OCC3)CC1`, for which the Ki in test [1] was determined as 250 nM; in test [3] it was 0.13 nM. Besides, the EC50 in test [2] turned out to be 1.85 nM.

Turning to `CCCCN1CCC(CNC(=O)c2cc(Cl)c(N)c3c2OCC3)CC1`, the values for the Ki in test [1] and in test [3] were 57 nM and 1.9 nM, respectively. A half-maximal response in test [2] (EC50) required 4.49 nM.

Consider `O=C(N[C@H]1CN2CCC1CC2)c1cccc2c1OCC2`, for which the Ki in test [1] is 14 nM; in test [3], > 10000 nM. Besides, in test [2], the 50% effective concentration (EC50) is > 1000 nM. Besides, the Kb in test [4] is > 1000 nM.

As to `Nc1c(Cl)cc(C(=O)OCCN2CCCCC2)c2c1CCO2`, the Ki in test [1] stood at 110 nM; in test [3] it was 0.94 nM. The same molecule came in with an EC50 in test [2] of 2.02 nM.

In the case of `CCN(CC)CCNC(=O)c1cc(Cl)c(N)cc1OC` [METOCLOPRAMIDE], the inhibition constant Ki in test [1] was determined as 490 nM.

As to `Nc1c(Cl)cc(C(=O)N[C@@H]2CN3CCC2CC3)c2c1CCO2`, the Ki in test [1] came out at 0.1 nM; in test [3], 17 nM. In addition, the EC50 in test [2] stood at 18.6 nM. The Kb in test [6] was determined as 18.6 nM; in test [5], 3.8 nM.

In the case of `COc1cc(N)c(Cl)cc1C(=O)N[C@@H]1CN2CCC1CC2`, the Ki in test [1] worked out at 0.11 nM; in test [3], 131 nM. Besides, a half-maximal response in test [2] (EC50) required 55.9 nM.

As for `Nc1c(Cl)cc(C(=O)N[C@H]2CN3CCC2CC3)c2c1CCO2`, the Ki in test [1] is 1 nM; in test [3] it was 115 nM. Moreover, the response in test [2] was half-maximal at 195 nM (EC50). The molecule also came in with a Kb in test [5] of 33.9 nM.

`Nc1ccc(C(=O)N[C@H]2CN3CCC2CC3)c2c1CCO2`: the Ki was 20 nM in test [1] and > 1000 nM in test [3]. Besides, the EC50 in test [2] is > 1000 nM. Moreover, in test [4], the Kb was > 1000 nM.

Take `Nc1c(Cl)cc(C(=O)OCCCN2CCCCC2)c2c1CCO2`: the Ki in test [1] came to 1180 nM; in test [3], 4.5 nM. It took 7.43 nM to reach a half-maximal effect in test [2] (EC50).

Take `Nc1c(Cl)cc(C(=O)NCCN2CCCCC2)c2c1CCO2`: the figures for the Ki in test [1] and in test [3] were 380 nM and 41 nM, respectively. Moreover, in test [2], the 50% effective concentration (EC50) turned out to be 35.4 nM.

For `CCCC[N+]12CCC(CC1)[C@H](NC(=O)c1cc(Cl)c(N)c3c1OCC3)C2`, the Ki in test [1] was 73 nM; in test [3], 1.9 nM. Moreover, the EC50 in test [2] is 8.5 nM.

For `O=C(N[C@@H]1CN2CCC1CC2)c1cc(Cl)cc2c1OCC2`, the Ki was found to be 1 nM in test [1] and 170 nM in test [3]. Further, the EC50 in test [2] is > 10000 nM. Further, the Kb in test [4] was > 100 nM; in test [5], 21.8 nM.

On to `CCCC[N+]12CCC(CC1)[C@@H](NC(=O)c1cc(Cl)c(N)c3c1OCC3)C2`, for which the Ki in test [1] was found to be 10 nM; in test [3], 420 nM. The molecule further gave an EC50 in test [2] of 1360 nM.
